What was measured:
[1] = test system: host alternative RNA splicing; design: method as in PMID 22456266; conditions: of 8,175 analyzed, cited from earlier work
[2] = test system: nascent protein synthesis; assay type: cell-based, human; conditions: 220 nM
Protocol: To monitor HIV-1 gene expression or replication, Gag release into cell culture supernatants were assayed by ELISA using a p24^CA antigen capture assay kit (AIDS & Cancer Virus Program, NCI-Frederick, Frederick, MD USA). Media harvested from HIV clinical isolates were diluted ~10 fold (or as necessary) prior to performing this assay. For analysis of HIV-1 and SR protein expression (and phosphorylation states with calf intestinal alkaline phosphatase treatments), cells were lysed and analyzed by western blot as previously outlined. Phosphatase inhibitors (e.g. 10 mM sodium fluoride, 2 mM sodium orthovanadate) were added to solutions requiring phospho protein analyses. […] Activation of MAPKs was determined by western blot quantitation and calculation of phospho/total protein levels. […] Stain-Free™ gels were casted and proteins were detected as described in 10% TGX-Stain-Free FastCast Acrylamide Kit from Bio-Rad (#161-0183). […] In representative gel/blot sets, samples were electrophoresed from the same experiment as controls, resolved simultaneously on identically cast gel(s), transferred to same PVDF (by either wet electrophoretic or by Bio-Rad Trans-Blot® Turbo Transfer System), and detected at same time. […] Cells were subsequently washed, whole cell lysates prepared, and proteins quantified by western blot using an anti-puromycin antibody (EMD Millipore, #anti-12D10) as described above. […]

C[C@H]1O[C@@H](O[C@H]2[C@@H](O)C[C@H](O[C@H]3[C@@H](O)C[C@H](O[C@H]4CC[C@@]5(C)[C@H](CC[C@@H]6[C@@H]5CC[C@]5(C)[C@@H](C7=CC(=O)OC7)CC[C@]65O)C4)O[C@@H]3C)O[C@@H]2C)C[C@H](O)[C@@H]1O [Digitoxin]
host splicing events affected ([1]; q-value = 0, sepscore ≥ 1.0): 1681 events | host splicing events affected, share of analyzed [1]: ~ 20.6%

COc1ccc(C[C@H]2NC[C@H](O)[C@H]2OC(C)=O)cc1 [anisomycin, Anisomycin]
effect on nascent protein synthesis [2]: little to no effect

Source: paper PMC5770468, “Cardiac glycoside/aglycones inhibit HIV-1 gene expression by a mechanism requiring MEK1/2-ERK1/2 signaling” (Scientific Reports, 2018)
